Laboratory results: PMC12307992, “The Potential Influence of Associated Antidepressants on the Pharmacokinetic Profile of Esketamine in Patients Affected by Treatment-resistant Depression” (Current Neuropharmacology, 2025)

Assays:
[1] = design: method as in earlier work; details: ref Data on File. Esketamine. Summary of Clinical Pharmacology. Janssen Research & Development, LLC. EMDS-ERI-149761559; 2018; cited from earlier work
[2] = Adverse events 20 min post-esketamine (blood pressure, dizziness, confusion, ACES) in relation to serum levels; format: in vivo, patients
Description: Adverse events of intranasal administration of esketamine were evaluated 20 min post-esketamine initiation, such as changes in systolic and diastolic blood pressure, vertigo, dissociation, dizziness, sedation, headache, nausea and vomiting, and confusion.
(§1) To assess the changes in clinical status with treatment, we administered the following clinical scales at BL and one month after the first intranasal esketamine: clinician-rated Brief Psychiatric Rating Scale-version 4.0 (BPRS-24) to evaluate psychiatric symptoms; Montgomery-Åsberg Depression Rating Scale (MADRS) and Hamilton Depression Rating Scale (HAM-D) to assess depression; Hamilton Anxiety Rating Scale (HAM-A) to assess anxiety; Young Mania Rating Scale (YMRS) to assess manic symptoms, Clinical Global Impressions Scale (CGI) to assess the overall severity (CGI-S) and improvement (CGI-I), with CGI-S administered at both timepoints and CGI-I only at 1 month. Self-rated scales included the Beck Depression Inventory, 2nd edition (BDI-II), used to assess the cognitive aspects of depression (Beck’s cognitive triad), and the World Health Organization Quality of Life Scale-Brief (WHOQOL-BREF) to assess patient’s quality-of-life (QoL). For all scales save the WHOQOL-BREF, higher scores indicate higher psychopathology, while for the WHOQOL-BREF, higher scores reflect better QoL. Furthermore, we administered the clinician-rated Agitation-Calmness Evaluation Scale (ACES) to assess agitation vs. sedation during the first esketamine administration phase (BL to 72 hours). ACES is a single-item scale, in which scores from 1 to 3 are inversely related to the degree of agitation, and scores from 5 to 9 are directly related to calmness and sedation, until the score of 8 and 9, which indicate deep sleep and unarousable state, respectively. Finally, we evaluated dissociation with the Clinician-Administered Dissociative States Scale (CADSS) following the first esketamine administration (BL to 72 hours).
After having applied the Shapiro-Wilk test to ascertain the normality of distribution of our sample and the Mauchly sphericity test to assess the validity of the Analysis of Variance (ANOVA), we proceeded by performing parametric tests. We used the ANOVA-1way to compare samples for continuous variables and Fishers Least Significant Difference (LSD) to test differences in nominal variables. We used Grubbs’ test (alpha=0.05) to identify statistically significant outliers to exclude them from further analyses. Correlations were sought through Pearson’s r correlation coefficient. Besides concentrations, we calculated the area under the curve (AUC) as stated above. For all other calculations, we used the IBM Statistical Package for the Social Sciences (SPSS), version 29.0 (September 2022, Armonk, New York: IBM Corporation).

[3] = Clinical rating scales at baseline and one month after first intranasal esketamine; format: in vivo, patients
Excerpt: as §1

[4] = after intranasal administration; cited from earlier work
[5] = phase 3 studies; cited from earlier work
[6] = Serum esketamine levels (LC-MS/MS) after intranasal esketamine 56 mg in TRD patients; details: for AUC: human, serum, other: intranasal, 56 mg, AUC value, 0-72 h
[7] = Salivary esketamine levels (LC-MS/MS) after intranasal esketamine 56 mg in TRD patients
[8] = 20 min post-esketamine, 15 patients
[9] = one month following initial esketamine administration, 15 patients

In the case of CC[C@H]1OC(=O)[C@H](C)[C@@H](O[C@H]2C[C@@](C)(OC)[C@@H](O)[C@H](C)O2)[C@H](C)[C@@H](O[C@@H]2O[C@H](C)C[C@H](N(C)C)[C@H]2O)[C@](C)(OC)C[C@@H](C)C(=O)[C@H](C)[C@@H](O)[C@]1(C)O [clarithromycine], the “Effect of co-treatment on the PK profile of esketamine” value [1] is given as “negligible effect”.

For CN[C@]1(c2ccccc2Cl)CCCCC1=O [esketamine, (S)-isomer of ketamine], the “Correlation (χ2) of confusion with serum esketamine levels” value ([2]; 20 min post-administration, p < 0.05) was 3.830, the “Correlation (χ2) of dizziness with serum esketamine levels” value ([2]; 20 min post-administration, p = 0.043) was 4.114 and the “Patients with blood pressure reduced” value [2, 8] was 28.3%. For the same compound, the “Patients with blood pressure relatively unchanged” value [2, 8] was 28.3%, the “Patients with a rise in systolic blood pressure” value ([2]; 20 min post-esketamine, 23 of 53 patients) was 43.4% and the “Correlation (r) between serum esketamine values and changes in systolic blood pressure” value ([2]; at 20 min, p = 0.0003) was 0.23. The “Correlation (r) between esketamine levels and changes in ACES” value ([2]; at 20 minutes, p = 0.02) was 0.1, the “Global scores of all clinical scales (BPRS-Total, MADRS, BDI, WHOQOL-BREF or CGI)” value ([3]; 1 month after esketamine administration) was “improved” and the YMRS values ([3]; absolute score, all patients) was < 8. The “Patients in whom HAM-A values dropped” value ([3]; baseline to 1 month) was 51 of 53, the “Patients with YMRS scores increased” value [3, 9] was 28.3% and the “Patients with YMRS scores unchanged” value [3, 9] was 28.3%. For the same compound, the “Patients with YMRS scores decreased” value ([3]; one month following initial esketamine administration, 23 patients) was 43.4%, the “elimination half-life (t½)” value [4] was 7 to 12 h and the “time to reach maximum plasma concentrations (Tmax)” value [4] was 0.333 to 0.667 h. For the same compound, the “Patients with a rise in blood pressure” value [5] was < 10%, the “Serum esketamine levels after 72 hours” value ([6]; 56 mg intranasal, all groups) was “undetectable” and the “AUC value of patient greater than average value of the group” value ([6]; group 2 patient on oxcarbazepine vs group 2 average) was 46%. It also gave an AUC ([6]; average of group, group 1 (paroxetine/fluoxetine)) of 868 ng·h/mL, an AUC ([6]; average of group, group 2 (duloxetine)) of 655 ng·h/mL and an AUC ([6]; average of group, group 3 (venlafaxine/desvenlafaxine)) of 857 ng·h/mL. The AUC ([6]; average of group, group 4 (sertraline/citalopram/escitalopram)) was 419 ng·h/mL, the AUC ([6]; average of group, group 5 (vortioxetine)) was 439 ng·h/mL and the AUC ([6]; average of group, group 6 (TCAs/mirtazapine/trazodone)) was 705 ng·h/mL. For the same compound, the AUC ([6]; single patient, group 1 patient on paroxetine, bupropion, valproate and atorvastatine) was 628 ng·h/mL, the AUC ([6]; single patient, group 2 patient also on oxcarbazepine) was 954 ng·h/mL and the AUC ([6]; single patient, group 3 patient also on valproate) was 298 ng·h/mL. It also gave an AUC ([6]; single patient, group 3 patient also on valproate and atorvastatin) of 599 ng·h/mL, an AUC ([6]; single patient, group 4 patient also on topiramate) of 921 ng·h/mL and an AUC ([6]; single patient, group 5 patient also on prednisone) of 957 ng·h/mL. The AUC ([6]; single patient, group 6 patient on mirtazapine and oxcarbazepine) was 260 ng·h/mL, the “Salivary levels of esketamine at 20 min relative to serum levels” value ([7]; 56 mg intranasal) was “several-fold greater than serum levels” and the “Esketamine levels in the saliva after 72 hours” value ([7]; a few patients on fluoxetine/paroxetine, duloxetine or venlafaxine/desvenlafaxine) was “still detectable”. The concentration at 20 min ([7]; human, saliva, other: intranasal, 56 mg) was > 1000 ng/mL.
